Test results as given in US10517862B2, “Fused heterocyclic compound derivative and application thereof” (NHWA PHARMA. CORPORATION, priority 2015, dated 2019).

Columns and labels:
5HT2C receptor = biological target: T1, 5HT2C receptor (Rattus norvegicus, UniProt P08909); experiment: 5HT2C receptor binding assay ([3H]-mesulergine, rat striatum membrane); conditions: for affinity with 5HT2C (in words): summary of in vitro assay; for inhibition at 10 µM: test compound final concentration 10^−5 M, [3H]-mesulergine, rat striatum membrane, read-out: 5HT2C Inhibition rate (%)
T1 construct: from tissue; host or cells: rat brain striatum
T1 sequence (P08909 33-460): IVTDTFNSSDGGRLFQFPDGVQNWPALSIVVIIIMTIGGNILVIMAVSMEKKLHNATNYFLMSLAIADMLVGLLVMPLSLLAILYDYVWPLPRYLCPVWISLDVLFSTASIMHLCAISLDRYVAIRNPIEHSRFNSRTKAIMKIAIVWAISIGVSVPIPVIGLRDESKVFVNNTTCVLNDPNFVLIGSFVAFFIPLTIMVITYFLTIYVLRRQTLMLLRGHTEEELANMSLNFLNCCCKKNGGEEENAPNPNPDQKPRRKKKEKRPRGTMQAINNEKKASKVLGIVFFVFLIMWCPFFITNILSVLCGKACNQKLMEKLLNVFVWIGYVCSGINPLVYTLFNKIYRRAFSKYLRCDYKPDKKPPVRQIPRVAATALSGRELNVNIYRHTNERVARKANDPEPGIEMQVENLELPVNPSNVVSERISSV
Procedure: Preparation of 5HT2C Membrane
Rats were decapitated on ice. […] Centrifugation was conducted.
(§1) Materials for the Receptor Binding Assay

Histamine H1 receptor = Histamine H1 receptor (Rattus norvegicus, UniProt P31390); experiment: Histamine H1 receptor binding assay (3H-pyrilamine, rat cerebellum membrane); conditions: for inhibition at 10 µM: read-out: H1 Inhibition rate (%); for affinity with H1 (in words): summary of in vitro assay
Procedure: The supernatant was discarded to give pellets, and homogenate F was added again to the pellets for washing. Centrifugation was conducted and repeated 3 times.
(2) 100 μL of membrane preparation was added into each reaction tube.

5HT1A receptor = biological target: T2, 5HT1A receptor (Rattus norvegicus, UniProt P19327); experiment: 5HT1A receptor binding assay (3H-8-OH-DPAT, rat striatum membrane); conditions: for affinity with 5HT1A (in words): summary of in vitro assay; for inhibition at 10 µM: test compound final concentration 10^−5 M, 3H-8-OH-DPAT, rat striatum membrane, read-out: 5HT1A Inhibition rate (%)
T2 construct: Rats were decapitated on ice; from tissue; host or cells: rat brain striatum
T2 sequence (P19327 1-422): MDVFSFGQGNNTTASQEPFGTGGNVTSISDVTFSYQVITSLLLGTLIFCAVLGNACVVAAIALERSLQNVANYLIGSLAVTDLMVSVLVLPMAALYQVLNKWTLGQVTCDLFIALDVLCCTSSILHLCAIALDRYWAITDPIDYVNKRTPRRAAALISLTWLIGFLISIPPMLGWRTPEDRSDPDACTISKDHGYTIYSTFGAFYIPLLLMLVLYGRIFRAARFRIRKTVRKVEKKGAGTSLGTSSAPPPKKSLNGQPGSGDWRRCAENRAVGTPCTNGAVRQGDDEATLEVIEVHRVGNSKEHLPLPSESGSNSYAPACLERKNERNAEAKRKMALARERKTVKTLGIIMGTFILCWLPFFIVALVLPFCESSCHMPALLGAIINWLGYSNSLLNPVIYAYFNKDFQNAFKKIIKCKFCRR
Procedure: Preparation of 5HT1A Membrane
Rats were decapitated on ice. […] Incubation at 37° C. was conducted for 10 min. […] Centrifugation was conducted at 12000 rpm, 4° C. for 20 min. […] Centrifugation was conducted and repeated 3 times.
as §1

5HT2A receptor = 5HT2A receptor (Rattus norvegicus, UniProt P14842); experiment: 5HT2A receptor binding assay ([3H]-Ketanserin, rat striatum membrane); conditions: for inhibition at 10 µM: read-out: 5HT2A Inhibition rate (%); for affinity with 5HT2A (in words): summary of in vitro assay
in vivo = conditions: both sexes, mouse, in vivo, po; single intragastric administration in mice; read-out: LD50 (po, mg/kg)
Catalepsy assay in mice = conditions: both sexes, Kunming, mouse, in vivo, po, bar test at 30, 60, 90 min
Procedure: Healthy mice of Kunming breed (with half male and half female, (22±2) g) were provided by Qinglongshan Animal Cultivation Center, Nanjing.
Instruments: self-made bar-grabbing apparatus: stainless steel bar in mice box, which was 0.3 cm in diameter and […].
Corresponding solvent double-distilled water was administered intragastrically to the negative control group and the model group, corresponding positive drugs were administered intragastrically to the positive drug groups (a small amount of acetic acid was first added and then double-distilled water was added when dissolving), and corresponding dosages of compounds were administered intragastrically to the compound groups for each dosage, with the volume for intragastric administration as 0.1 ml/10 g. At 30 min, 60 min, 90 min after the intragastric administration, the two forepaws of the mice were gently placed on the bars (which were 20 cm in length, 0.3 cm in diameter, and 5.5 cm above the bench), and the hindpaws of the animals were placed on the bottom of the box. The durations of the mice to maintain the posture with the two forepaws on the bars were recorded, and 30 s of spasticity without moving was considered as the positive response. In the case the forepaws of the mice were not put down persistently, the observation was terminated at 60 s. The numbers of animals with positive response in each of the compound dosage groups were counted.

D3 receptor = biological target: T3, D3 receptor (Homo sapiens, UniProt P35462); experiment: D3 receptor assay ([3H]-Spiperone, HEK-293 cells); format: binding; conditions: for affinity with D3 (in words): summary of in vitro assay; for inhibition at 10 µM: test compound final concentration 10 μmol/L, [3H]-Spiperone, HEK-293 cells, read-out: D3 Inhibition rate (%)
T3 construct: expressed in transfected cells; host or cells: HEK-293
Procedure: Then the cells were centrifuged at 1000 rpm for 5 min, the supernatant was discarded, and the cell pellets was collected and stored in a −20° C. fridge for reservation. It was re-suspended with Tris-Cl (pH 7.4) when the assay was performed.
Tris was divided into aliquots by Genetimes Technology Inc.
Competitive binding test for receptors: 20 μl of each of the test compounds and 20 μl of the radioactive ligand together with 160 μl of the receptor proteins were added into the reaction tubes, and the final concentrations of the test compound and the positive drug were all 10 μmol/L. After 50 min of incubation in 30° C. water bath, the tubes were immediately moved to ice bath to terminate the reactions. GF/C glass fiber filter papers were used for rapid sucking filtration on a Millipore cell sample collector, 3 ml of elution buffer (50 mM Tris-HCl, PH 7.4) was applied for 3 times, and microwave was applied for 4-5 min for drying. The filter paper was moved into 0.5 ml centrifuge tube, and 500 μl of liposoluble scintillation cocktail was added. The tubes were allowed to stand still for over 30 min in dark, and the intensities of radioactivity were measured by a counter.

mice of Kunming breed = experiment: Apomorphine induced clambering assay of mice; format: in vivo; conditions: Mus musculus; mice, po; apomorphine 1 mg/kg sc 1 hour after administration; read-out: Apomorphine induced clambering (ED50, po, mg/kg)
Procedure: Healthy mice of Kunming breed (KM) (male, with body weight of 18-22 g) were provided by Qinglongshan Animal Cultivation Center, Nanjing.
Apomorphine provided by Sigma Company was dissolved in 0.9% NaCl (containing 0.1% vitamin C) before use, and was freshly formulated before use.
Vitamin C, F20061113, was provided by Sinopharm Chemical Reagent Co. Ltd.
Sodium chloride injection, H32026305, was provided by Xuzhou No. 5 Pharmaceutical Factory Co. Ltd.
Instruments: self-made clambering cage, chronograph.
Procedures: apomorphine induced clambering assay of mice
After 5 min of adaptation, the behavior of the mice at 10-11, 20-21, and 30-31 min after the injection of apomorphine were observed and scored. Scoring criteria: the behavior of 4 paws on the floor was scored as 0; the behavior of 2 forepaws on the cage was scored as 1; and the behavior of 4 paws on the cage was scored as 2.

T3 sequence (P35462 whole entry): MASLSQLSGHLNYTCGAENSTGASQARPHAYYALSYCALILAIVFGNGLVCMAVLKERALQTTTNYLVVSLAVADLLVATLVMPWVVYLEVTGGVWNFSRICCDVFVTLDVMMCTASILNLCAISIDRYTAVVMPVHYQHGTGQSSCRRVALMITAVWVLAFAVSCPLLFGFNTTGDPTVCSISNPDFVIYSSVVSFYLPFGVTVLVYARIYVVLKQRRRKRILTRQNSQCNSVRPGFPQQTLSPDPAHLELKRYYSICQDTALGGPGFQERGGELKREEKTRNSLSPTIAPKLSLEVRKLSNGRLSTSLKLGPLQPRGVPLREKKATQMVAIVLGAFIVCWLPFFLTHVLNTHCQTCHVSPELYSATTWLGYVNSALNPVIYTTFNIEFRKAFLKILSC
5HT2A receptor, sequence (P14842 whole entry): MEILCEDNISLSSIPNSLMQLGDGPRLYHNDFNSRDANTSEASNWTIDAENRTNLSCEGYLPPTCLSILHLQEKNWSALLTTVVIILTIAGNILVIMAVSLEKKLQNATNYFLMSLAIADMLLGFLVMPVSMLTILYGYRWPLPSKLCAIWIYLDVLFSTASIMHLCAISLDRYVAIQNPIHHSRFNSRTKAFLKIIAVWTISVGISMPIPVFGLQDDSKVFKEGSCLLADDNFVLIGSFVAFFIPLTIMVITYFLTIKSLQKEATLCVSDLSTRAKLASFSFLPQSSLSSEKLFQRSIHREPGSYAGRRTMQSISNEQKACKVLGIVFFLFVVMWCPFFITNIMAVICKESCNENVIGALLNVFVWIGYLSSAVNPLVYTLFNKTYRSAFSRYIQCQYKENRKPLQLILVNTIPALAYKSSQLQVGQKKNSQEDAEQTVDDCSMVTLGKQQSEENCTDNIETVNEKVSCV
Histamine H1 receptor, sequence (P31390 whole entry): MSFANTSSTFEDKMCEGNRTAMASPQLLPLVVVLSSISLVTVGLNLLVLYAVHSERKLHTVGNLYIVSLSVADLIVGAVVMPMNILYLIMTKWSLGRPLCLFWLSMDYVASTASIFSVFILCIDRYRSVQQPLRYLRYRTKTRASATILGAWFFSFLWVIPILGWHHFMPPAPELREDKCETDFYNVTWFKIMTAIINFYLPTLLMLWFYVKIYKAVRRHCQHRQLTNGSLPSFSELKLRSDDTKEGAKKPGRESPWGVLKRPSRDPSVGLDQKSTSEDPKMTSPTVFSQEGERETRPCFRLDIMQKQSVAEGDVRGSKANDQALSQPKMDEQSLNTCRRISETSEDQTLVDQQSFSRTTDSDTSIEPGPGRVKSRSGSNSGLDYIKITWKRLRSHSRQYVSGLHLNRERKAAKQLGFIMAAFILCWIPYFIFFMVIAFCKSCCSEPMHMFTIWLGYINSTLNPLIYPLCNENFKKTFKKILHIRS

SMILES	affinity with 5HT2C (in words) (5HT2C receptor)	inhibition at 10 µM (5HT2C receptor) [%]	inhibition at 10 µM (Histamine H1 receptor) [%]	affinity with H1 (in words) (Histamine H1 receptor)	affinity with 5HT1A (in words) (5HT1A receptor)	inhibition at 10 µM (5HT1A receptor) [%]	inhibition at 10 µM (5HT2A receptor) [%]	affinity with 5HT2A (in words) (5HT2A receptor)	LD50 at 7 days (in vivo) [mg/kg]	ED50 (Catalepsy assay in mice) [mg/kg]	affinity with D3 (in words) (D3 receptor)	inhibition at 10 µM (D3 receptor) [%]	ED50 (mice of Kunming breed) [mg/kg]
O=C(CCCN1CCC(c2noc3cc(F)ccc23)CC1)c1cc2c3c(c1)CCC(=O)N3CCC2 [Compound 5]	low affinities	66.8	44.5	low affinities	high affinities	99.8	99.5	high affinities	> 2000	> 200	high affinities	98	1.31
O=C(CCN1CCC(c2noc3cc(F)ccc23)CC1)c1cc2c3c(c1)CCN3C(=O)CC2 [Compound 12]	low affinities	56.5	41.4	low affinities	high affinities	96.5	94.4	high affinities	> 2000	8.45	high affinities	94.9	0.076
